Experimental data published in ChEMBL document CHEMBL1158979, “Ryanodyl 3-(pyridine-3-carboxylate): a novel ryanoid from Ryania insecticide” (J Nat Prod, 1991).
Active and inactive are the calls of the source. No cut-off for these calls is given here.

Key:
Mus musculus = experiment: Toxicity in ip dosed mouse; type: organism-based; settings: in vivo
Musca domestica = experiment: Insecticidal activity against Musca domestica in presence of piperonyl butoxide applied topically; type: functional, organism-based
[1] = target: Ryanodine receptor 1 (Oryctolagus cuniculus) (UniProt P11716); experiment: Displacement of [3H]ryanodine from Ca2+- ryanodine 1 receptor complex in rabbit skeletal muscle
Sequence of Ryanodine receptor 1 (Oryctolagus cuniculus) (P11716 whole entry): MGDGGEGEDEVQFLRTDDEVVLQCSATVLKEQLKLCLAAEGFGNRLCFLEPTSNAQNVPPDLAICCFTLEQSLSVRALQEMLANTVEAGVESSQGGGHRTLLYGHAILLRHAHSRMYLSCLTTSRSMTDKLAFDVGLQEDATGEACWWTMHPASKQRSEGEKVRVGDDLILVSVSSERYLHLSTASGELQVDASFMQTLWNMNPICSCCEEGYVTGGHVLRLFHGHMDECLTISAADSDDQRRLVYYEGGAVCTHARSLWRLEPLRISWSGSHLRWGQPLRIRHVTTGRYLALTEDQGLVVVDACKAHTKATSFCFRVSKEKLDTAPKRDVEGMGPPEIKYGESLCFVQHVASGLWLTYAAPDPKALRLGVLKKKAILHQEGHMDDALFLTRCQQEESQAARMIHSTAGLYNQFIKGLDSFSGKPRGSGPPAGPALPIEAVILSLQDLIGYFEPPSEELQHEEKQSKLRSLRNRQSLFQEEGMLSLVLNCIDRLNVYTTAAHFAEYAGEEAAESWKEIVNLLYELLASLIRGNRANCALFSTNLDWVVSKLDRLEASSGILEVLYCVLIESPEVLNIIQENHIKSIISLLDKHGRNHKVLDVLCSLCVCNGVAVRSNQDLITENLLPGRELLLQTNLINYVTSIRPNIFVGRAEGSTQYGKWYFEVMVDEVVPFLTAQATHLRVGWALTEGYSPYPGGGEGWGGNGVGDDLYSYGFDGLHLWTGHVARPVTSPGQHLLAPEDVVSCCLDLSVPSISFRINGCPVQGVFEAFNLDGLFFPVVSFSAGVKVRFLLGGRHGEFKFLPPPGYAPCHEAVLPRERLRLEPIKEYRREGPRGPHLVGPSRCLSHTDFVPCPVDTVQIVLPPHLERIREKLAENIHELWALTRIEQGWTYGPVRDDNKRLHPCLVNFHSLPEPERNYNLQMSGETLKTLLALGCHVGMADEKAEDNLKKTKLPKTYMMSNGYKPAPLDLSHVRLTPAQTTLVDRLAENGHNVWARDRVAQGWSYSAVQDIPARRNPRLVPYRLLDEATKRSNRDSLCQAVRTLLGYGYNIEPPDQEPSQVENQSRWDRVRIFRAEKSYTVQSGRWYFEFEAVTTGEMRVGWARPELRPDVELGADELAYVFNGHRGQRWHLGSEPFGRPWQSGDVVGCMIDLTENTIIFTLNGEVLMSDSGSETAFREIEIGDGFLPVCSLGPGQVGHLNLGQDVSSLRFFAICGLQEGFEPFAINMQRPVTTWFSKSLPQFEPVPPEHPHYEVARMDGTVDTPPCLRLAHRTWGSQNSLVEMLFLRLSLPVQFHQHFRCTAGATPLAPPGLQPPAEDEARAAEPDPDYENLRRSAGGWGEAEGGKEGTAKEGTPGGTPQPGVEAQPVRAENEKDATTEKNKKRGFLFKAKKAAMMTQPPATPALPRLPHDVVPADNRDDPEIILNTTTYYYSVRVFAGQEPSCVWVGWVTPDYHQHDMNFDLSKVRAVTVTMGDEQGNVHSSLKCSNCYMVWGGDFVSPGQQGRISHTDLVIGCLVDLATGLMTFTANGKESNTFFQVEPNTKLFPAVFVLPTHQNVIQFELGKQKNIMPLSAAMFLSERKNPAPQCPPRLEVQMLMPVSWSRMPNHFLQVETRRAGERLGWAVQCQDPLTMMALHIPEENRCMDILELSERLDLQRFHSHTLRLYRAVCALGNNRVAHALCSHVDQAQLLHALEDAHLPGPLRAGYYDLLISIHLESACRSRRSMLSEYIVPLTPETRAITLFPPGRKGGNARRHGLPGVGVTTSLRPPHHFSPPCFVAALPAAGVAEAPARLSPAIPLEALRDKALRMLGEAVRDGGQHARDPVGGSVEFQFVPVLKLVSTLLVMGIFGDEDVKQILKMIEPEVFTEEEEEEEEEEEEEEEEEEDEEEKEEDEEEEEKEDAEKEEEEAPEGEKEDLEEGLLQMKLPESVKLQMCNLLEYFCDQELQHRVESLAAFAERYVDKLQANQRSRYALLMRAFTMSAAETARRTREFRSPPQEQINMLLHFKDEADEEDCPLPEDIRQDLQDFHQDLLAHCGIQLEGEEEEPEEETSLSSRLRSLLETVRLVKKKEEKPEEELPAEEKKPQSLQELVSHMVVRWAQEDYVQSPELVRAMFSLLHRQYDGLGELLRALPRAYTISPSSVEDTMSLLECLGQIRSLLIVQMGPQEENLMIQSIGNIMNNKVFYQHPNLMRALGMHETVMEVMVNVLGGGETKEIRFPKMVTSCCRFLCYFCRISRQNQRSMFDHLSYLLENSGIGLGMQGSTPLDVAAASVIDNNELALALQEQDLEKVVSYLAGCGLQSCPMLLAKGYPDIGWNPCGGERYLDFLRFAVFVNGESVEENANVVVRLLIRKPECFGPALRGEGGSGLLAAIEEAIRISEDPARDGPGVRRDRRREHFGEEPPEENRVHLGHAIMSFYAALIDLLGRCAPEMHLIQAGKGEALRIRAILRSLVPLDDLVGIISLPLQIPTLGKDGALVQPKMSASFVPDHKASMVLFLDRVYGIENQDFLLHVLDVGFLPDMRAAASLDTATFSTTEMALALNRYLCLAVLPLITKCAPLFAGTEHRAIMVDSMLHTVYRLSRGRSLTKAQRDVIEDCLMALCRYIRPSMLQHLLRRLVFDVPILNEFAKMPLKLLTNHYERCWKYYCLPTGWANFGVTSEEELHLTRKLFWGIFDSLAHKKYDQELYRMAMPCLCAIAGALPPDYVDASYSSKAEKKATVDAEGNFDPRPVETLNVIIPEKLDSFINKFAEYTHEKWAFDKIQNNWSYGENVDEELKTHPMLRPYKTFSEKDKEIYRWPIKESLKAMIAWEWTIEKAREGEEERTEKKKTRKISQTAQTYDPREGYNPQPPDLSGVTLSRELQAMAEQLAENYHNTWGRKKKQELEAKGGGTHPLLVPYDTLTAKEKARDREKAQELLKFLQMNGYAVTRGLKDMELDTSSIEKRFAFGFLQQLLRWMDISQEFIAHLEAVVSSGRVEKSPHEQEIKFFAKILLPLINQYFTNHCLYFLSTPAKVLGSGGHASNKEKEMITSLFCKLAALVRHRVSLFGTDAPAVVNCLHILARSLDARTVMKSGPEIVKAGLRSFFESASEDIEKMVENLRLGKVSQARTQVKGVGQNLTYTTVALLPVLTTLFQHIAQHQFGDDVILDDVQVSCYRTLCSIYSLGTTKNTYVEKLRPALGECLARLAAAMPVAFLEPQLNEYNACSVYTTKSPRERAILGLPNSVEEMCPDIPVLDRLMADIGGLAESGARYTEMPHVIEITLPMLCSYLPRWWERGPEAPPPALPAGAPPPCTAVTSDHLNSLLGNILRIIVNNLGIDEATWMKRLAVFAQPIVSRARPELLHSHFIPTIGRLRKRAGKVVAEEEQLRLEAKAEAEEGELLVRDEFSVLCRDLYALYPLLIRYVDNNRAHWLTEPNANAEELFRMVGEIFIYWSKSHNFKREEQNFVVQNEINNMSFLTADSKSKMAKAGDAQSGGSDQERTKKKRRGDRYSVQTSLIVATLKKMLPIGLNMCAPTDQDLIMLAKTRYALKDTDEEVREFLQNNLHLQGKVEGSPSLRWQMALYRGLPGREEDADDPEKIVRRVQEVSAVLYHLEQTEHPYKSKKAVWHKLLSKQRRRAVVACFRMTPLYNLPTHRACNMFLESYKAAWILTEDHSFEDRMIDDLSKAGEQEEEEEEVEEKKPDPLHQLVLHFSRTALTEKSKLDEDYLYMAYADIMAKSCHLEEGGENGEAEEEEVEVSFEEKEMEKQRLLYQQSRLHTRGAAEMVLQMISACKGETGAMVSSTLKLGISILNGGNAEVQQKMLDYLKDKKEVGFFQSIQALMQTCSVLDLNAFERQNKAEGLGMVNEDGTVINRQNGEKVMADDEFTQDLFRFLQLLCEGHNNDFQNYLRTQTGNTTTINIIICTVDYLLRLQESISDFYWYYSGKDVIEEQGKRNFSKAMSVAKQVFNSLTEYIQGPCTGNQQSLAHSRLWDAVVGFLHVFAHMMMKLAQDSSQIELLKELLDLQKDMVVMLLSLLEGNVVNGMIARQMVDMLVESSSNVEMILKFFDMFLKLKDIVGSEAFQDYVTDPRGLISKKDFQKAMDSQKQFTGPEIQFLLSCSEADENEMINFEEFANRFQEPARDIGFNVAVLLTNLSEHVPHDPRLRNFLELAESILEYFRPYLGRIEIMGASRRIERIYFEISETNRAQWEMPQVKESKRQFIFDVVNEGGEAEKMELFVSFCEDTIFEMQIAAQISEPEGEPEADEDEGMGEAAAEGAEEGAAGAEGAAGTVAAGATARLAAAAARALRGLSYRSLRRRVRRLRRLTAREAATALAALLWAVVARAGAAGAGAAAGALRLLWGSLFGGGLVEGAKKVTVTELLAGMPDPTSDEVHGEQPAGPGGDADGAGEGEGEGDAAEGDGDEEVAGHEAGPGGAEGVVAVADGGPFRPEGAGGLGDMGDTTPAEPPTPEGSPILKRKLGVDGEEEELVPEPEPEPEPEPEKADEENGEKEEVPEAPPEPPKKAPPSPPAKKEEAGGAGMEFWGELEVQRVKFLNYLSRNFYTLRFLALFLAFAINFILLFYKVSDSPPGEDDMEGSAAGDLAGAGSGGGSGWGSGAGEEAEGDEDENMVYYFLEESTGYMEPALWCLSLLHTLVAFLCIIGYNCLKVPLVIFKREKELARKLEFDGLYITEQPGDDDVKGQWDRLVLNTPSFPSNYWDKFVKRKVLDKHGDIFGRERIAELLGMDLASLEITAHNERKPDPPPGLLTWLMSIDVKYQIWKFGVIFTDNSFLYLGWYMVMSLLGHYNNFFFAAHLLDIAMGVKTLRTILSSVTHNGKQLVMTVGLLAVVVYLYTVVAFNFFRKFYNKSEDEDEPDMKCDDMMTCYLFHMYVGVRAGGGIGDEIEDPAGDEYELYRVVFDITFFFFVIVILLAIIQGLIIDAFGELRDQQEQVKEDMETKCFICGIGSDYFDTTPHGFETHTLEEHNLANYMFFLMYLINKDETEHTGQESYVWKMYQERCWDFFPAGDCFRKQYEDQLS

Tribolium castaneum = experiment: Insecticidal activity against Tribolium castaneum first instar larvae; type: functional, organism-based

SMILES | Activity (Mus musculus) | Activity (Musca domestica) | Activity [1] | Activity (Tribolium castaneum)
CC(C)[C@@]1(O)[C@@H](OC(=O)c2cccnc2)[C@@]2(O)[C@]3(C)C[C@@]4(O)O[C@@]5([C@H](O)[C@@H](C)CC[C@]35O)[C@@]2(O)[C@@]41C | Not Active | inactive | inactive | inactive
CC(C)[C@@]1(O)[C@@H](OC(=O)c2ccc[nH]2)[C@@]2(O)[C@@]3(C)C[C@]4(O)O[C@@]5([C@H](O)[C@@H](C)CC[C@]35O)[C@@]2(O)[C@@]14C [RYANODINE] | Active | – | – | –
CC(C)[C@@]1(O)[C@@H](OC(=O)c2cc[nH]c2)[C@@]2(O)[C@]3(C)C[C@@]4(O)O[C@@]5([C@H](O)[C@@H](C)CC[C@]35O)[C@@]2(O)[C@@]41C | – | Active | – | Active
